Results from US10807944B2, “HDAC inhibitor compounds and methods of treatment” (priority 2014, dated 2020).

Legend:
Type in all cases: biochemical
[1] = target: HDAC2 (Homo sapiens (Human), UniProt Q92769); assay: HDAC2 in vitro inhibition, dose response; settings: Table 2; read-out: HDAC 2 IC50
[2] = target: HDAC1 (Homo sapiens (Human), UniProt Q13547); assay: HDAC1 in vitro inhibition, dose response; settings: Table 2; read-out: HDAC 1 IC50
[3] = target: HDAC3 (Homo sapiens (Human), UniProt O15379); assay: HDAC3 in vitro inhibition, dose response; settings: Table 2; read-out: HDAC 3 IC50
HDAC3, sequence (O15379 whole entry): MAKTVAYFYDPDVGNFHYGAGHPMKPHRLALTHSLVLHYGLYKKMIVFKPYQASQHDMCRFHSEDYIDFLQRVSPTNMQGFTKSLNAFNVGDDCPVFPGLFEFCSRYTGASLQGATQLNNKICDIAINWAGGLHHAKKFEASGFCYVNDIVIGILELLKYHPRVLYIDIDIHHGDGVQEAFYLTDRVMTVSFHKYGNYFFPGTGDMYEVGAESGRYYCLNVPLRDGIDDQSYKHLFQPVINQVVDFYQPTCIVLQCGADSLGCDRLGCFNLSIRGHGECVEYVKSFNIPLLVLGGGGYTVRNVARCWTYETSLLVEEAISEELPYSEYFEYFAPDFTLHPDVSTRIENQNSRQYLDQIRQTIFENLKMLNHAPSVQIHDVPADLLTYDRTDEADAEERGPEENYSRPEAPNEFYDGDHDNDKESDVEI
HDAC3, sequence (Q9Y618 395-489 partner): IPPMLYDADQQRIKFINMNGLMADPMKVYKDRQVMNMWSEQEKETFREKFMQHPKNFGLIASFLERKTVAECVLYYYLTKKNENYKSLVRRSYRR

HDAC1, sequence (Q13547 whole entry): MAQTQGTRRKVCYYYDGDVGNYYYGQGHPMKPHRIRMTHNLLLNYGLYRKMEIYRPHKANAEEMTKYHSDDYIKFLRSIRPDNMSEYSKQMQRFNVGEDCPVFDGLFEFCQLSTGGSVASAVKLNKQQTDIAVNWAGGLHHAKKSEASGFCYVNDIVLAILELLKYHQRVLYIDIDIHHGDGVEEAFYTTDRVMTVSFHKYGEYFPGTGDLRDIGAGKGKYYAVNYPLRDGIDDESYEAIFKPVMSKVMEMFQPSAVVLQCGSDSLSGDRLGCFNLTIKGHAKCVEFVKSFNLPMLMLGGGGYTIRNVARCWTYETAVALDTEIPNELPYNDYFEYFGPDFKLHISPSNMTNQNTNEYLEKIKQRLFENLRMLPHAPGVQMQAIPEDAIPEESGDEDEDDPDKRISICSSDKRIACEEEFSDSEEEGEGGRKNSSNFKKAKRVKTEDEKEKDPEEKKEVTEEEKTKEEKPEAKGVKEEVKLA
HDAC2, sequence (Q92769 whole entry): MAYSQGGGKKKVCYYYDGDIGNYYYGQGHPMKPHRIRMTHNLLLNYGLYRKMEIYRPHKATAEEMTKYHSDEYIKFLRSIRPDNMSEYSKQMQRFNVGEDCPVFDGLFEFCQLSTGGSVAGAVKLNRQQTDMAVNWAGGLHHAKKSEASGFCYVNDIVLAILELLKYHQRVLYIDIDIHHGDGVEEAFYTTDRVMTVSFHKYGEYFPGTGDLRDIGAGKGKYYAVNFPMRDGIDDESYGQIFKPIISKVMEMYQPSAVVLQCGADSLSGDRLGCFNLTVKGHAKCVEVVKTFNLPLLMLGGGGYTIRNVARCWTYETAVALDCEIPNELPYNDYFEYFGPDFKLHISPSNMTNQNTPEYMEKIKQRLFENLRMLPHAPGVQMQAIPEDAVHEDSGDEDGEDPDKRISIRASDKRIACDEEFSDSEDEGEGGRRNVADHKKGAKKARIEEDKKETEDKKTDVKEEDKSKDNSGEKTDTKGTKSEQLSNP

Compound | IC50 [1] | IC50 [2] | IC50 [3]
CN(C)c1ccc(C(=O)NNCC2CCCC2)cc1 [RLS2-225, N′-(cyclopentylmethyl)-4-(dimethylamino)benzohydrazide] | 3.25 µM | 1.76 µM | 1.67 µM
CCCCNNC(=O)c1cccc(C(F)(F)F)c1 [RLS3-6, N′-butyl-3-(trifluoromethyl)benzohydrazide] | 93.3 µM | 35.3 µM | 1.88 µM
CCCCNNC(=O)c1ccccc1F [RLS2-305, N′-butyl-2-fluorobenzohydrazide] | 79.6 µM | 72.3 µM | 42.4 µM
CCCCNNC(=O)c1cccc(I)c1 [RLS3-5, N′-butyl-3-iodobenzohydrazide] | 47 µM | 31.4 µM | > 50 µM
CCCCNNC(=O)c1cc2ccccc2cc1O [RLS2-210, N′-butyl-3-hydroxy-2-naphthohydrazide] | > 50 µM | > 50 µM | > 50 µM
O=C(NNCCCC1CCCC1)c1ccc2ccccc2c1 [RLS2-249, N′-(3-cyclopentylpropyl)-2-naphthohydrazide] | > 50 µM | > 50 µM | > 50 µM
CCCCNNC(=O)c1ccc(-c2cncnc2)cc1 [SR-4369, N′-butyl-4-(pyrimidin-5-yl)benzohydrazide] | 7.27 µM | 1.24 µM | 2.29 µM
NNC(=O)c1ccc2ccccc2c1 [RLS2-243, 2-naphthohydrazide] | > 50 µM | > 50 µM | > 50 µM
CCCCNNC(=O)c1ccc(OC)c(OC)c1 [RLS3-20] | 30.1 µM | > 50 µM | 13.8 µM
CCNNC(=O)c1ccc2ccccc2c1 [RLS2-240, N′-ethyl-2-naphthohydrazide] | > 50 µM | > 50 µM | > 50 µM
CCCCNNC(=O)c1ccc2ccccc2c1 [RLS2-238, N′-butyl-2-naphthohydrazide] | 5.92 µM | 4.3 µM | –
CCCCNNC(=O)c1ccc(OCC)c(OCC)c1 [RLS3-14, N′-butyl-3,4-diethoxybenzohydrazide] | 7.4 µM | 11.8 µM | 0.8 µM
CCCCNNC(=O)c1ccncc1 [RLS2-290, N′-butylisonicotinohydrazide] | 13.7 µM | 4.28 µM | 1.4 µM
N′-butyl-3-fluorobenzohydrazide [RLS2-306] | 10.9 µM | 8.63 µM | 4.77 µM
O=C(NNCC1CCCC1)c1ccc(Br)cc1 [RLS2-256, 4-bromo-N′-(cyclopentylmethyl)benzohydrazide] | 28.4 µM | 8.81 µM | 6.98 µM
O=C(NNCCC1CCCC1)c1ccc(Br)cc1 [RLS2-219, 4-bromo-N′-(2-cyclopentylethyl)benzohydrazide] | 7.65 µM | 7.4 µM | 1.08 µM
O=C(NNCCCC1CCCC1)c1ccc(Br)cc1 [RLS2-257, 4-bromo-N′-(3-cyclopentylpropyl)benzohydrazide] | > 50 µM | > 50 µM | > 50 µM
O=C(NNCCc1ccccc1)c1ccc(Br)cc1 [RLS2-138, 4-bromo-N′-phenethylbenzohydrazide] | > 50 µM | > 50 µM | > 50 µM
CCCCNNC(=O)c1ccccc1-c1ccccc1 [RLS3-4, N′-butylbiphenyl-2-carbohydrazide] | > 50 µM | > 50 µM | > 50 µM
CCCCNNC(=O)c1cccc(OCC)c1 [RLS2-303, N′-butyl-3-ethoxybenzohydrazide] | > 50 µM | > 50 µM | > 50 µM
CCCCNNC(=O)c1ccc(Cl)cc1 [RLS2-133, N′-butyl-4-chlorobenzohydrazide] | 5.82 µM | 3.75 µM | 0.95 µM
CCCCNNC(=O)c1cccnc1 [RLS2-289, N′-butylnicotinohydrazide] | 56.7 µM | 14.5 µM | 4.35 µM
CCCCCCNNC(=O)c1ccc(C(C)(C)C)cc1 [RLS2-283, 4-tert-butyl-N′-hexylbenzohydrazide] | 2.82 µM | 2.25 µM | 8.08 µM
